Test [1] has as its system Aβ formation in H4 APP751 SWE clone 8.20 cells (H4 neuroglioma cell line stably expressing the Swedish mutant of APP751). Briefly: Inhibition of Aβ formation in cultured cells. The format is cell-based. The following applies: for IC50: H4 APP751 SWE clone 8.20 cells, 19 hours incubation, Aβ40 or Aβ42 not specified. On the procedure: Compounds were assayed for Aβ40 or Aβ42 inhibition in cells using H4 APP751 SWE clone 8.20, developed at Bristol-Myers Squibb, an H4 neuroglioma cell line stably expressing the Swedish mutant of APP751. Cells were maintained in log phase through twice weekly passage at a 1:20 dilution. For IC50 determinations, 30 μL cells (1.5×10^4 cells/well) in DMEM media containing 0.0125% BSA (Sigma A8412) were plated directly into 384-well compound plates (Costar 3709) containing 0.1 μL serially diluted compound in DMSO. Following incubation for 19 hours in 5% CO2 at 37° C., plates were briefly centrifuged (1000 rpm, 5 min). A 10 μL aliquot from each well was transferred to a second assay plate (Costar 3709) for Aβ40 measurements. Antibody cocktails were freshly prepared by dilution into 40 mM Tris-HCl (pH 7.4) with 0.2% BSA and added to assay plates. For Aβ42 measurements, antibodies specific for the Aβ42 neoepitope (565, developed at Bristol-Myers Squibb; conjugated to the Wallac reagent (Perkin Elmer)) and the N-terminal sequence of Aβ peptide (26D6, developed at SIBIA/Bristol-Myers Squibb; conjugated to APC (Perkin Elmer)) were mixed and 20 […] of the mixture was added to each well of the incubated cell plate yielding a final concentration of 0.8 ng/well 565 and 75 ng/well 26D6. For the Aβ40 measurements, antibodies specific for the Aβ40 neoepitope (TSD, developed at Bristol-Myers Squibb; conjugated to the Wallac reagent (Perkin Elmer)) and 26D6 as described above were mixed and 20 μL of the mixture was added to the 10 μL aliquots which had been removed previously from the cell plate yielding a final concentration of 1.6 ng/well TSD and 17.5 ng/well 26D6. Assay plates containing antibodies were sealed with aluminum foil and incubated overnight at 4° C. Signal was determined using a Viewlux counter (Perkin Elmer) and IC50 values determined using curve fitting in CurveMaster (Excel Fit based).

A further test relates to plasma Aβ40. The test can be described thus: Acute rat study, plasma Abeta40 assay (4G8-TSD ELISA). The format is in vivo. Conditions: female Sprague-Dawley rats, single dose 10 mg/kg, oral gavage. On the procedure:
(§1) Aβ species from animals were measured using sandwich ELISA assays. A brief discussion of these assays is included here since the details of the epitopes for the individual antibodies determines the Aβ species that are detected. Mouse and rat Aβ share a common Aβ sequence that differs from human Aβ. As a result of these sequence differences, antibodies that recognize the N-terminal region of human Aβ, such as 26D6, bind weakly to rodent Aβ. Likewise, antibodies that bind tightly to rodent Aβ, such as 252, bind weakly to human Aβ. Two assays were developed for measuring rodent Aβ40: 252-TSD and 4G8-TSD. The TSD-4G8 assay can measure not only Aβ40, but other BACE-γ-secretase cleavage products (Aβ11-40) and α-secretase-γ-secretase cleavage products (P3).
(§2) Dosing solutions were made once at the start of the study. Heating at 56° C. and sonication were used to solubilize compound in the dosing solution. All procedures were done in concordance with ACUC guidelines. Terminal blood samples were obtained by cardiac puncture after CO2 euthanasia and collected in EDTA tubes. Plasma was obtained after centrifugation. […]
Plates were coated with TSD antibody and washed as for the brain Aβ40 assay. […] Samples were detected using 4G8-biotin (Signet) diluted 1:8000 in PBS, 0.05% Tween, 0.1% BSA for 1 hour. […] Detection and quantification were as for brain Aβ40 assays. […]

In the next test the test system is brain Aβ40. The test can be described thus: Acute rat study, brain Abeta40 assay (252-TSD ELISA). The format is in vivo. The following applies: female Sprague-Dawley rats, single dose 10 mg/kg, oral gavage. The procedure:
as §1, §2
Rat brain (half a hemisphere) was homogenized using a polytron at 4 mL/g in PBS, pH 7.8, 2% CHAPS, complete protease inhibitors (Roche). […] The bound 252-HRP antibody was detected using Pierce Supersignal Pico Chemiluminescent substrate for 10 minutes and quantified a Packard TopCount. […]
(ELISA stands for enzyme-linked immunosorbent assay.)

As usually defined, the IC50 is the concentration that inhibits the measured activity by half. Lower therefore signals greater potency in that assay.

Take `NC(=O)[C@@H](CC1CC1)N(Cc1ccc(Br)cc1)S(=O)(=O)c1ccc(Cl)s1` [Example 1, (R)-2-(N-(4-bromobenzyl)-5-chlorothiophene-2-sulfonamido)-3-cyclopropylpropanamide]: half-maximal inhibition in test [1] (IC50) required 1010 pM.
On to `NC(=O)[C@@H](CC1CC1)N(Cc1ccc(Br)cc1F)S(=O)(=O)c1ccc(Cl)s1` [Example 2, (R)-2-(N-(4-bromo-2-fluorobenzyl)-5-chlorothiophene-2-sulfonamido)-3-cyclopropylpropanamide], for which the IC50 in test [1] worked out at 520 pM.
`NC(=O)[C@@H](CC1CC1)N(Cc1ccc(Br)c(F)c1)S(=O)(=O)c1ccc(Cl)s1` [Example 3, (R)-2-(N-(4-bromo-3-fluorobenzyl)-5-chlorothiophene-2-sulfonamido)-3-cyclopropylpropanamide]: in test [1], the IC50 was found to be 760 pM.
The molecule `NC(=O)[C@@H](CC1CC1)N(Cc1cc(F)c(Br)cc1F)S(=O)(=O)c1ccc(Cl)s1` [Example 4, (R)-2-(N-(4-bromo-2,5-difluorobenzyl)-5-chlorothiophene-2-sulfonamido)-3-cyclopropylpropanamide] registered an IC50 in test [1] of 820 pM.
Molecule `NC(=O)[C@@H](CC1CC1)N(Cc1ccc(-c2ncon2)cc1)S(=O)(=O)c1ccc(Cl)s1` [Example 5, (R)-2-(N-(4-(1,2,4-oxadiazol-3-yl)benzyl)-5-chlorothiophene-2-sulfonamido)-3-cyclopropylpropanamide] gave an IC50 in test [1] of 510 pM.
In turn, `NC(=O)[C@@H](CC1CC1)N(Cc1cc(F)c(Cl)cc1F)S(=O)(=O)c1ccc(Cl)s1` [Example 6, (R)-2-(5-chloro-N-(4-chloro-2,5-difluorobenzyl)thiaphene-2-sulfonamido)-3-cyclopropylpropanamide] registered an IC50 in test [1] of 1490 pM. This IC50 is about 2.9-fold higher than that of the molecule before.
In turn, `NC(=O)[C@@H](CCC(F)(F)F)N(Cc1ccc(-c2ncon2)cc1F)S(=O)(=O)c1ccc(Cl)s1` [Example 7, (R)-2-(5-chloro-N-(2-fluoro-4-(1,2,4-oxadiazol-3-yl)benzyl)thiophene-2-sulfonamido)-5,5,5-trifluoropentanamide] yielded an IC50 in test [1] of 290 pM. In test [1] (cultured cells), the “Aβ40 versus Aβ42 inhibition in cultured cells” value is “similarly inhibited”. The “plasma Aβ40, level as % of vehicle control” value in the test with plasma Aβ40 is recorded as 47 % of vehicle control. Moreover, the “brain Aβ40, level as % of vehicle control” value with brain Aβ40 is 41 % of vehicle control.
Regarding `NC(=O)[C@@H](CCC(F)(F)F)N(Cc1ccc(-c2ncco2)cc1F)S(=O)(=O)c1ccc(Cl)s1` [Example 9, (R)-2-(5-chloro-N-(2-fluoro-4-(oxazol-2-yl)benzyl)thiophene-2-sulfonamido)-5,5,5-trifluoropentanamide], half-maximal inhibition in test [1] (IC50) required 610 pM.
In test [1], `NC(=O)[C@@H](CCC(F)(F)F)N(Cc1ccc(Br)cc1)S(=O)(=O)c1ccc(Cl)s1` [Example 10, (R)-2-(N-(4-bromobenzyl)-5-chlorothiophene-2-sulfonamido)-5,5,5-trifluoropentanamnide] returned an IC50 of 2540 pM.
`NC(=O)[C@@H](CCC(F)(F)F)N(Cc1ccc(Br)cc1F)S(=O)(=O)c1ccc(Cl)s1` [Example 11, (R)-2-(N-(4-bromo-2-fluorobenzyl)-5-chlorothiophene-2-sulfonamido)-5,5,5-trifluoropentanamide] gave an IC50 in test [1] of 1060 pM. Compared with the last molecule, the IC50 is about 2.4-fold lower.
Molecule `NC(=O)[C@@H](CCC(F)(F)F)N(Cc1ccc(Br)c(F)c1)S(=O)(=O)c1ccc(Cl)s1` [Example 12, (R)-2-(N-(4-bromo-3-fluorobenzyl)-5-chlorothiophene-2-sulfonamido)-5,5,5-trifluoropentanamide] registered an IC50 in test [1] of 2980 pM.

For the origin of these results see US20110071199A1, “Thiophenyl Sulfonamides for the Treatment of Alzheimer's Disease” (Bristol-Myers Squibb Company, priority 2009, published 2011).
